Results as given in US9271978B2 (Zenith Epigenetics Corp., priority 2012, dated 2016).

Legend:
ApoA-I mRNA = assay: Up-regulation of hApoA-1 mRNA transcription in Huh7 cells; assay type: cell-based, human; design: key: Active: Compounds with an EC170 value less than 30 μM were deemed to be active; details: 48 h treatment, ApoA-I mRNA by real-time PCR, Active = EC170 less than 30 μM
Summary of the method: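 Huh7 cells treated with compound for 48 h. ApoA-I mRNA was then quantified in captured mRNA by one-step real-time RT-PCR. Fold induction calculated from Ct values relative to the matching DMSO control; EC170 is the concentration for 170% of control expression.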

hMCP-1 mRNA = assay: Inhibition of hMCP-1 mRNA transcription in human peripheral blood mononuclear cells; assay type: cell-based; design: key: Active: Compounds with an IC50 value less than 30 μM were deemed to be active.; Not Active: Compounds with an IC50 value less than 30 μM were deemed to be active; details: 3 h
Procedure: In this example, hMCP-1 mRNA in human peripheral blood mononuclear cells was quantitated to measure the transcriptional inhibition of hMCP-1 when treated with a compound of the present disclosure.
Human Peripheral Blood Mononuclear Cells were plated (1.0×10^5 cells per well) in a 96-well plate in 45 μL RPMI-1640 containing 10% FBS and penicillin/streptomycin. The cells were treated with the test compound (45 μL at 2× concentration), and then the cells were incubated at 37° C. for 3 h before the cells were harvested. At time of harvest, cells were transferred to V-bottom plates and centrifuged (800 rpm, 5 min). Spent media was removed and cell lysis solution (70 μL) was added the cells in each well and incubated for 5-10 min at room temperature, to allow for complete cell lysis and detachment. mRNA was then prepared using the “mRNA Catcher PLUS plate” (Invitrogen), according to the protocol supplied. After the last wash, as much wash buffer as possible was aspirated without allowing the wells to dry. Elution buffer (E3, 70 μL) was then added to each well. mRNA was then eluted by incubating the mRNA Catcher PLUS plate with Elution Buffer for 5 min at 68° C. and then immediately placing the plate on ice.
(§1) The eluted mRNA isolated was then used in a one-step quantitative real-time PCR reaction, using components of the Ultra Sense Kit together with Applied Biosystems primer-probe mixes. Real-time PCR data was analyzed, normalizing the Ct values for hMCP-1 to an internal control, prior to determining the fold induction of each unknown sample, relative to the control.

hIL-17 mRNA = assay: Inhibition of hIL-17 mRNA transcription in human peripheral blood mononuclear cells; assay type: cell-based; design: key: Active: Compounds with an IC50 value less than 30 μM were deemed to be active.; Not Active: Compounds with an IC50 value less than 30 μM were deemed to be active; details: OKT3 antibody stimulation
Procedure: In this example, hIL-17 mRNA in human peripheral blood mononuclear cells was quantitated to measure the transcriptional inhibition of hIL-17 when treated with a compound of the invention.
Human peripheral blood mononuclear cells were plated (2.0×10^5 cells per well) in a 96-well plate in 45 μL OpTimizer T Cell expansion media containing 20 ng/ml IL-2 and penicillin/streptomycin. The cells were treated with the test compound (45 μL. at 2× concentration), and then the cells were incubated at 37° C. for 1 h before addition of 10× stock OKT3 antibody at 10 ug/ml in media. Cells were incubated at 37° C. for 3 h before the cells were harvested. At time of harvest, cells were centrifuged (800 rpm, 5 min). Spent media was removed and cell lysis solution (70 μL) was added the cells in each well and incubated for 5-10 min at room temperature, to allow for complete cell lysis and detachment. mRNA was then prepared using the “mRNA Catcher PLUS plate” (Invitrogen), according to the protocol supplied. After the last wash, as much wash buffer as possible was aspirated without allowing the wells to dry. Elution buffer (E3, 70 μL) was then added to each well. mRNA was then eluted by incubating the mRNA Catcher PLUS plate with Elution Buffer for 5 min at 68° C. and then immediately placing the plate on ice.
as §1, with “hIL-17” for “hMCP-1”

| SMILES | MCP-1 activity (IC50 < 30 μM) (hMCP-1 mRNA) | IL-17 activity (IC50 < 30 μM) (hIL-17 mRNA) | ApoA-1 activity (EC170 <30 μM) (ApoA-I mRNA) |
| --- | --- | --- | --- |
| Cc1noc(C)c1-c1cc(N)c(=O)n(Cc2ccccc2)c1 [Example 73, 3-Amino-1-benzyl-5-(3,5-dimethylisoxazol-4-yl)pyridin-2(1H)-one] | Active |  | Active |
| Cc1noc(C)c1-c1cc(N)c(=O)n(Cc2ccsc2)c1 [Example 219, 3-amino-5-(3,5-dimethylisoxazol-4-yl)-1-(thiophen-3-ylmethyl)pyridin-2(1H)-one] |  | Active | Active |
| Cc1noc(C)c1-c1cc(N)c(=O)n(Cc2ccc(Br)cc2)c1 [Example 241, 3-Amino-1-(4-bromobenzyl)-5-(3,5-dimethylisoxazol-4-yl)pyridin-2(1H)-one] |  | Active | Active |
| Cc1noc(C)c1-c1ccc(=O)n([C@H](C)c2ccccc2)c1 [Example 134, (R)-5-(3,5-Dimethylisoxazol-4-yl)-1-(1-phenylethyl)pyridin-2(1H)-one] | Active |  | Active |

More lines, main results first:

| MCP-1 activity (IC50 < 30 μM) (hMCP-1 mRNA) | IL-17 activity (IC50 < 30 μM) (hIL-17 mRNA) | SMILES | ApoA-1 activity (EC170 <30 μM) (ApoA-I mRNA) |
| --- | --- | --- | --- |
| Active | Active | Cc1noc(C)c1-c1ccc(=O)n(Cc2ccc(Cl)cc2)c1 [Example 128, 1-(4-Chlorobenzyl)-5-(3,5-dimethylisoxazol-4-yl)pyridin-2(1H)-one] | Active |
| Active |  | Cc1noc(C)c1-c1ccc(=O)n(Cc2ccccc2)c1 [Example 56, 1-Benzyl-5-(3,5-dimethylisoxazol-4-yl)pyridin-2(1H)-one] | Active |
|  | Active | Cc1noc(C)c1-c1cc(N)c(=O)n(Cc2ccc(F)cc2)c1 [Example 180, 3-amino-5-(3,5-dimethylisoxazol-4-yl)-1-(4-fluorobenzyl)pyridin-2(1H)-one] | Active |
